Eight compounds from PubChem BioAssay (NCI) can be followed below.

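Following 48 hours of exposure in 96-well plates, responses at five concentrations were used to interpolate endpoints linearly. The concentration for 50% growth inhibition is given as GI50. TGI: concentration producing complete growth inhibition.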

Common to all, as to experiment: NCI tumour cell line growth inhibition, 48 h
Test [1] relates to EKVX NSCLC.
Test [2] has as its system SK-OV-3 ovarian.
For test [3], the system named is RXF 393 renal.
Test [4] concerns A498 renal.
For test [5], the system named is SF-539 CNS.
Test [6] deals with COLO 205 colon.
For test [7], the system named is OVCAR-8 ovarian.
The subject of test [8] is OVCAR-5 ovarian.
Test [9] relates to MALME-3M melanoma.
Test [10] concerns UACC-62 melanoma.

As to `CO/N=C(\COc1ccc2oc(-c3ccccc3)cc(=O)c2c1)c1ccc(OC)cc1`, the GI50 is 37.3 µM in [1]; 59.3 µM in [2]; 29 µM in [3]; 23.7 µM in test [4]; 24.4 µM in test [5]; 30.8 µM in test [6]. In addition, the GI50 is 31.8 µM in test [7], 24.6 µM in test [8], 24.8 µM in test [9] and 27 µM in test [10]. In addition, the TGI is more than 100 µM in [1]; more than 100 µM in test [2]; 97.5 µM in [3]; 66.3 µM in [4]; 64.7 µM in test [5]; more than 100 µM in test [6]. Also, the TGI in [7] was more than 100 µM; in test [8] it was 82.7 µM; in test [9] it was 63.8 µM; in [10], 84.7 µM.

`Cc1cc(N2CCOCC2)nc(N(CCCNc2ccnc3cc(Cl)ccc23)Cc2ccco2)n1`: the GI50 was 3.73 µM in [1]; 2.84 µM in test [2]; 1.69 µM in test [3]; 2.2 µM in test [4]; 1.95 µM in test [5]; 1.71 µM in [6]. The GI50 in test [7] was 3.15 µM; in [8] it was 4.23 µM; in test [9], 2.47 µM; in test [10], 3.49 µM. In addition, the TGI in test [1] was 16.7 µM; in test [2], 10.7 µM; in [3], 4.43 µM; in test [4], 6.04 µM; in test [5], 4.02 µM; in [6], 3.72 µM. In addition, the TGI was 12.1 µM in [7], 19.3 µM in test [8], 5.69 µM in test [9] and 12.5 µM in test [10].

In the case of `CCN(CC)C(=S)SCN1C(=O)c2ccccc2S1(=O)=O`, the GI50 in [1] is more than 100 µM; in test [2], more than 100 µM; in test [3], more than 51.3 µM; in test [4] it was 42.9 µM; in test [5] it was 41.7 µM; in [6], 33.2 µM. Besides, the GI50 in [7] is more than 57.9 µM; in test [8] it was more than 68.4 µM; in test [9], more than 48.7 µM; in [10], 3.02 µM. In addition, the TGI in test [1] was more than 100 µM; in test [2], more than 100 µM; in test [3] it was more than 80.1 µM; in test [4] it was more than 100 µM; in test [5], more than 100 µM; in test [6], more than 100 µM. Moreover, the TGI in test [7] was more than 100 µM; in test [8] it was more than 100 µM; in [9] it was 97.6 µM.

On to `CN(Cc1cc(Br)cc(Br)c1O)Cc1c(O)ccc2ccccc12`, for which the TGI in [1] turned out to be 35.8 µM; in test [2], 52 µM; in test [3], 38.8 µM; in test [4], 36.2 µM; in [5], 35.6 µM; in [6], 36.7 µM. The TGI in test [7] is 60 µM; in test [8], 37.1 µM; in test [9], 42.9 µM; in [10] it was 41.3 µM.

With `CSC(=S)OC1CC(n2cnc3c(NC(=O)c4ccccc4)ncnc32)OC1CO[Si](C)(C)C(C)(C)C` (centres undefined), the TGI in test [1] is more than 56.2 µM; in test [2], more than 46.4 µM; in [3], more than 65.8 µM; in test [4] it was more than 31.6 µM; in test [5], more than 46.4 µM; in [6], 18.1 µM. In addition, the TGI was more than 56.2 µM in [7], more than 56.2 µM in [8], 51.9 µM in test [9] and more than 56.2 µM in test [10].

For the compound `CCC(=O)Nc1ccc(C)c(-c2ccc(C(=O)NCC3CC3)cc2)c1`, the GI50 in test [1], in [2], in test [3], in test [4], in [5] and in [6] was more than 25 µM throughout. Also, the GI50 in [7], in test [8], in test [9] and in test [10] was more than 25 µM throughout. Moreover, the TGI in [1], in test [2], in test [3], in test [4], in test [5] and in test [6] was more than 25 µM in each case. In addition, the TGI in test [7], in [8], in test [9] and in test [10] was more than 25 µM in each case.

As for `CC(C)(C)c1ccc(OCCOCCOc2ccc(C(C)(C)C)cc2S(=O)(=O)Nc2ccc([N+](=O)[O-])cc2)c(S(=O)(=O)Nc2ccc([N+](=O)[O-])cc2)c1`, the TGI in [1] is more than 100 µM; in test [2], more than 100 µM; in test [3], more than 100 µM; in [4] it was 90.9 µM; in [5] it was more than 100 µM; in test [6], more than 100 µM. Besides, the TGI in test [7], in test [8], in test [9] and in test [10] was more than 100 µM each time.

For the compound `CC1(C)NCCC[C@]2(C)[C@H]3CC[C@@H]4[C@H]5[C@H](C(=O)/C=C/c6ccccn6)CC[C@]5(CO)CC[C@@]4(C)[C@]3(C)CC[C@@H]12`, the GI50 in [1] was 5.51 µM; in test [2], 12.9 µM; in [3] it was 2.51 µM; in test [4], 8.7 µM; in [5], 1.78 µM; in test [6], 2.07 µM. The GI50 in [7] is 2.02 µM; in [8] it was 3.69 µM; in [9], 1.77 µM; in test [10], 4 µM. The TGI was 23.4 µM in [1]; 30 µM in test [2]; 8.08 µM in test [3]; 23.5 µM in [4]; 3.6 µM in test [5]; 4.28 µM in test [6]. Besides, the TGI in test [7] was 4.54 µM; in [8], 16.9 µM; in [9] it was 3.51 µM; in test [10], 17.2 µM.
